Assay results taken from patent US10214507B2, “Carbazole-containing amides, carbamates, and ureas as cryptochrome modulators” (Reset Therapeutics, Inc., priority 2014, dated 2019).

These compounds were tested on stable U20S reporter cells harboring Per2-dLuc (assay: Per2 assay for evaluating the potency of test compounds (circadian luciferase reporter)). Conditions: amplitude of Per2-dLuc luminescence vs log concentration.
Assay type: cell-based
Method: Compounds were screened by using a high-throughput circadian assay system as previously described in Zhang, E. E. et al. Cell, 2009, 139, 199-210. In brief, stable U20S reporter cells harboring Per2-dLuc were plated at a density of 30,000 cells/well in Corning 96-well, solid white, flat bottom, TC-treated microplates (Corning®), and incubated for 48 hours at 37° C. in the presence of 5% CO2 in a medium of Dulbecco's Modified Eagle Medium (DMEM) supplemented with 10% fetal bovine serum (FBS) and penicillin (100 units/mL)-streptomycin (100 μg/mL). […] DMSO stocks are then serially diluted in DMSO, typically diluting 3-fold for each dilution step. Following the 48 h period, cell culture medium is removed from plated cells and cells are synchronized with 200 μL/well of complete cell culture medium (described above), supplemented with 5 μM forskolin (Tocris®) and 1 mM beetle luciferin (Promega®). Immediately following synchronization, 1 μL of compound dilution is added to each well. Plates are sealed, shaken briefly, and gene expression was monitored by measuring luminescence (Tecan® Infinite M200 or Tecan® Infinite M200 Pro) continuously for a minimum of 3 days at 35° C. Raw luminescence data (counts) are first analyzed using Multicycle™ software (Actimetrics, Inc.) to determine the amplitude (amp), period, and phase (phz) for each compound concentration. The period length for control wells (i.e. no compound, DMSO only) should be 26-30 h. Amp data are then plotted against the logarithm compound concentration (M) and analyzed by nonlinear regression analysis to determine the EC50.
CC1CCCC(=O)N1CC(C)(O)Cn1c2ccc(F)cc2c2cc(F)ccc21 (centres unmarked) [Compound 40, 1-(3-(3,6-difluoro-9H-carbazol-9-yl)-2-hydroxy-2-methylpropyl)-6-methylpiperidin-2-one] was tested, and the EC50 was 484 nM. With CC(C)C1CC(=O)N(CC(O)Cn2c3ccc(F)cc3c3cc(F)ccc32)C1 (centres unmarked) [Compound 41, 1-(3-(3,6-difluoro-9H-carbazol-9-yl)-2-hydroxypropyl)-4-isopropylpyrrolidin-2-one] the EC50 was 373 nM. With O=C1CC(C2CC2)CN1CC(O)Cn1c2ccc(F)cc2c2cc(F)ccc21 (centres unmarked) [Compound 42, 4-cyclopropyl-1-(3-(3,6-difluoro-9H-carbazol-9-yl)-2-hydroxypropyl)pyrrolidin-2-one] the EC50 was 420 nM. In the case of CC1CC(=O)N(CC(O)Cn2c3ccc(F)cc3c3cc(F)ccc32)C1 (centres unmarked) [Compound 43, 1-(3-(3,6-difluoro-9H-carbazol-9-yl)-2-hydroxypropyl)-4-methylpyrrolidin-2-one], the EC50 is reported as 1030 nM. Work on CC1CC(=O)N(CC(C)(O)Cn2c3ccc(F)cc3c3cc(F)ccc32)C1 (centres unmarked) [Compound 44, 1-(3-(3,6-difluoro-9H-carbazol-9-yl)-2-hydroxy-2-methylpropyl)-4-methylpyrrolidin-2-one] yielded an EC50 of 1060 nM. Compound CCC1CC(=O)N(CC(O)Cn2c3ccc(F)cc3c3cc(F)ccc32)C1 (centres unmarked) [Compound 45, 1-(3-(3,6-difluoro-9H-carbazol-9-yl)-2-hydroxypropyl)-4-ethylpyrrolidin-2-one] has an EC50 of 52 nM. For CCC1CC(=O)N(CC(C)(O)Cn2c3ccc(F)cc3c3cc(F)ccc32)C1 (centres unmarked) [Compound 46, 1-(3-(3,6-difluoro-9H-carbazol-9-yl)-2-hydroxy-2-methylpropyl)-4-ethylpyrrolidin-2-one], the EC50 was 618 nM. Compound CC1CC(=O)N(CC(O)Cn2c3ccc(F)cc3c3cc(F)ccc32)C1C (centres unmarked) [Compound 47, 1-(3-(3,6-difluoro-9H-carbazol-9-yl)-2-hydroxypropyl)-4,5-dimethylpyrrolidin-2-one] has an EC50 of 299 nM. Work on CC1CCN(CC(O)Cn2c3ccc(F)cc3c3cc(F)ccc32)C(=O)C1 (centres unmarked) [Compound 49, 1-(3-(3,6-difluoro-9H-carbazol-9-yl)-2-hydroxypropyl)-4-methylpiperidin-2-one] yielded an EC50 of 137 nM. O=C1C(C2CCC2)CCN1CC(O)Cn1c2ccc(F)cc2c2cc(F)ccc21 (centres unmarked) [Compound 50, 3-cyclobutyl-1-(3-(3,6-difluoro-9H-carbazol-9-yl)-2-hydroxypropyl)pyrrolidin-2-one] gave an EC50 of 204 nM. O=C1C(C2CCC2)CCCN1CC(O)Cn1c2ccc(F)cc2c2cc(F)ccc21 (centres unmarked) [Compound 51, 3-cyclobutyl-1-(3-(3,6-difluoro-9H-carbazol-9-yl)-2-hydroxypropyl)piperidin-2-one] gave an EC50 of 265 nM. In the case of CC(O)(CN1CCCC(C2CCC2)C1=O)Cn1c2ccc(F)cc2c2cc(F)ccc21 (centres unmarked) [Compound 52, 3-cyclobutyl-1-(3-(3,6-difluoro-9H-carbazol-9-yl)-2-hydroxy-2-methylpropyl)piperidin-2-one], the EC50 is reported as 1360 nM. O=C1C(c2ccccc2)CCN1CC(O)Cn1c2ccc(F)cc2c2cc(F)ccc21 (centres unmarked) [Compound 53, 1-(3-(3,6-difluoro-9H-carbazol-9-yl)-2-hydroxypropyl)-3-phenylpyrrolidin-2-one] was tested, and the EC50 was 1340 nM. CC(O)(CN1CCC(c2ccccc2)C1=O)Cn1c2ccc(F)cc2c2cc(F)ccc21 (centres unmarked) [Compound 54, 1-(3-(3,6-difluoro-9H-carbazol-9-yl)-2-hydroxy-2-methylpropyl)-3-phenylpyrrolidin-2-one] showed an EC50 of 808 nM. O=C1COCCN1CC(O)Cn1c2ccc(F)cc2c2cc(F)ccc21 (centres unmarked) [Compound 55, 4-(3-(3,6-difluoro-9H-carbazol-9-yl)-2-hydroxypropyl)morpholin-3-one] gave an EC50 of 738 nM. For CC(O)(CN1CCOCC1=O)Cn1c2ccc(F)cc2c2cc(F)ccc21 (centres unmarked) [Compound 56, 4-(3-(3,6-difluoro-9H-carbazol-9-yl)-2-hydroxy-2-methylpropyl)morpholin-3-one], the EC50 was 1060 nM. O=C1N(CC(O)Cn2c3ccc(F)cc3c3cc(F)ccc32)CCC1(F)F (centres unmarked) [Compound 58, 1-(3-(3,6-difluoro-9H-carbazol-9-yl)-2-hydroxypropyl)-3,3-difluoropyrrolidin-2-one] was tested, and the EC50 was 716 nM. CC(O)(CN1CCC(F)(F)C1=O)Cn1c2ccc(F)cc2c2cc(F)ccc21 (centres unmarked) [Compound 59, 1-(3-(3,6-difluoro-9H-carbazol-9-yl)-2-hydroxy-2-methylpropyl)-3,3-difluoropyrrolidin-2-one] gave an EC50 of 986 nM. COC1CCCN(CC(O)Cn2c3ccccc3c3ccccc32)C1=O (centres unmarked) [Compound 60, 1-(3-(9H-carbazol-9-yl)-2-hydroxypropyl)-3-methoxypiperidin-2-one] was tested, and the EC50 was 331 nM. CC1CCN(CC(O)Cn2c3ccccc3c3ccccc32)C(=O)C1 (centres unmarked) [Compound 61, 2-(3-(9H-carbazol-9-yl)-2-hydroxypropyl)-4-methylpiperidin-2-one] was tested, and the EC50 was 710 nM. For CC1CCC(=O)N(CC(O)Cn2c3ccccc3c3ccccc32)C1 (centres unmarked) [Compound 62, 1-(3-(9H-carbazol-9-yl)-2-hydroxypropyl)-5-methylpiperidin-2-one], the EC50 was 370 nM. In the case of CC1CCCC(=O)N1CC(O)Cn1c2ccccc2c2ccccc21 (centres unmarked) [Compound 63, 1-(3-(9H-carbazol-9-yl)-2-hydroxypropyl)-6-methylpiperidin-2-one], the EC50 is reported as 541 nM. In the case of CC1CCCN(CC(O)Cn2c3ccccc3c3ccccc32)C1=O (centres unmarked) [Compound 64, 1-(3-(9H-carbazol-9-yl)-2-hydroxypropyl)-3-methylpiperidin-2-one], the EC50 is reported as 462 nM. For O=C1CC(C2CC2)CN1CC(O)Cn1c2ccccc2c2ccccc21 (centres unmarked) [Compound 65, 1-(3-(9H-carbazol-9-yl)-2-hydroxypropyl)-4-cyclopropylpyrrolidin-2-one], the EC50 was 1030 nM. In the case of CC(O)(CN1CCCCC1=O)Cn1c2ccccc2c2ccccc21 (centres unmarked) [Compound 66, 1-(3-(9H-carbazol-9-yl)-2-hydroxy-2-methylpropyl)piperidin-2-one], the EC50 is reported as 523 nM. With CC(O)(CN1CCCC1=O)Cn1c2ccccc2c2ccccc21 (centres unmarked) [Compound 67, 1-(3-(9H-carbazol-9-yl)-2-hydroxy-2-methylpropyl)pyrrolidin-2-one] the EC50 was 225 nM. With O=C1CCCN1CC(O)Cn1c2ccccc2c2ccccc21 (centres unmarked) [Compound 68, 1-(3-(9H-carbazol-9-yl)-2-hydroxypropyl)pyrrolidin-2-one] the EC50 was 288 nM. O=C1N(CC(O)Cn2c3ccccc3c3ccccc32)CCCC1(F)F (centres unmarked) [Compound 69, 1-(3-(9H-carbazol-9-yl)-2-hydroxypropyl)-3,3-difluoropiperidin-2-one] gave an EC50 of 137 nM. In the case of O=C1C(F)CCCN1CC(O)Cn1c2ccccc2c2ccccc21 (centres unmarked) [Compound 70, 1-(3-(9H-carbazol-9-yl)-2-hydroxypropyl)-3-fluoropiperidin-2-one], the EC50 is reported as 61 nM. O=C1NCCCN1CC(O)Cn1c2ccc(F)cc2c2cc(F)ccc21 (centres unmarked) [Compound 71, 1-(3-(3,6-difluoro-9H-carbazol-9-yl)-2-hydroxypropyl)tetrahydropyrimidin-2(1H)-one] gave an EC50 of 188 nM. With CCN1CCN(CC(O)Cn2c3ccc(F)cc3c3cc(F)ccc32)C1=O (centres unmarked) [Compound 73, 1-(3-(3,6-difluoro-9H-carbazol-9-yl)-2-hydroxypropyl)-3-ethylimidazolidin-2-one] the EC50 was 1110 nM. O=C1N(CC(O)Cn2c3ccc(F)cc3c3cc(F)ccc32)CCCN1C1CCCCC1 (centres unmarked) [Compound 74, 1-cyclohexyl-3-(3-(3,6-difluoro-9H-carbazol-9-yl)-2-hydroxypropyl)tetrahydropyrimidin-2(1H)-one] gave an EC50 of 284 nM. O=C1N(CC(O)Cn2c3ccc(F)cc3c3cc(F)ccc32)CCCN1c1ccccc1 (centres unmarked) [Compound 75, 1-(3-(3,6-difluoro-9H-carbazol-9-yl)-2-hydroxypropyl)-3-phenyltetrahydropyrimidin-2(1H)-one] gave an EC50 of 171 nM. In the case of O=C1N(CC(O)Cn2c3ccc(F)cc3c3cc(F)ccc32)CCCN1C1CCCC1 (centres unmarked) [Compound 76, 1-cyclopentyl-3-(3-(3,6-difluoro-9H-carbazol-9-yl)-2-hydroxypropyl)tetrahydropyrimidin-2(1H)-one], the EC50 is reported as 609 nM. Work on CC(C)N1CCCN(CC(O)Cn2c3ccc(F)cc3c3cc(F)ccc32)C1=O (centres unmarked) [Compound 77, 1-(3-(3,6-difluoro-9H-carbazol-9-yl)-2-hydroxypropyl)-3-isopropyltetrahydropyrimidin-2(1H)-one] yielded an EC50 of 620 nM. O=C1N(CC(O)Cn2c3ccc(F)cc3c3cc(F)ccc32)CCCN1C1CCC1 (centres unmarked) [Compound 78, 1-cyclobutyl-3-(3-(3,6-difluoro-9H-carbazol-9-yl)-2-hydroxypropyl)tetrahydropyrimidin-2(1H)-one] gave an EC50 of 440 nM. For CC(O)(CN1CCCN(c2ccccc2)C1=O)Cn1c2ccc(F)cc2c2cc(F)ccc21 (centres unmarked) [Compound 79, 1-(3-(3,6-difluoro-9H-carbazol-9-yl)-2-hydroxy-2-methylpropyl)-3-phenyltetrahydropyrimidin-2(1H)-one], the EC50 was 923 nM. In the case of CC(C)N1CCCN(CC(C)(O)Cn2c3ccc(F)cc3c3cc(F)ccc32)C1=O (centres unmarked) [Compound 80, 1-(3-(3,6-difluoro-9H-carbazol-9-yl)-2-hydroxy-2-methylpropyl)-3-isopropyltetrahydropyrimidin-2(1H)-one], the EC50 is reported as 1100 nM.
